Source: ChEMBL document CHEMBL3637782, “GSK Tres Cantos Follow-up TB Screening Data” (2016)
Values after ≈ are worked out from the molar mass of the structure shown.

Columns and labels:
[1] = system: Mycobacterium tuberculosis H37Rv; test: GSK_TB: Minimum inhibitory concentration against H37Rv stain of Mycobacterium tuberculosis using MABA method; assay type: functional; conditions: ATCC25618
[2] = system: Mycobacterium tuberculosis H37Rv; test: GSK_TB: Inhibition of the intracellular growth of Mycobacterium tuberculosis (pXC50); assay type: functional, ATCC25618
HepG2 = test: GSK_TB: The cytotoxicity against HepG2 cells expressed as IC50; assay type: functional, cell-based; conditions: Homo sapiens
[3] = GSK_TB: Kinetic solubility of the compound in phosphate buffered saline at pH 7.4 after 1 hr by CLND method; assay type: physicochemical
[4] = GSK_TB: Lipophilicity, log D of the compound at pH 7.4 by ChromlogD analysis; assay type: physicochemical; conditions: buffer
[5] = GSK_TB: AVG_CHROM_LOGP; assay type: physicochemical

Structure (SMILES)	MIC [1] [µM]	pXC50 [2]	IC50 (HepG2) [µM]	solubility kinetic at 1 h [3] [µg/mL]	Lipophilicity [4]	Lipophilicity [5]
Cc1ccc2oc(SCC(=O)Nc3nccs3)nc2n1	5.6 (≈ 1.72 µg/mL)	<4.3	40	31 (≈ 101 µM)	3.01	3.0066
Fc1ccc(Cc2nnc(-c3ccnc(Nc4ccc(OCCN5CCOCC5)cc4)n3)[nH]2)cc1	5.6 (≈ 2.66 µg/mL)	5.8	40	69 (≈ 145 µM)	3.84	3.8389
CC1CC1c1ccc(CN2CCc3nc(Nc4ccccc4)sc3CC2)o1 (stereo not drawn)	5.6 (≈ 2.13 µg/mL)		40	54 (≈ 142 µM)	7.64	8.1798
O=C(Nc1nc(-c2ccccn2)cs1)N1CCC(Cc2ccc(F)cc2)CC1	10 (≈ 3.96 µg/mL)	6.1	25	4 (≈ 10.1 µM)	6.09	6.3357
NC(=O)c1ccc(CN(C2CC2)S(=O)(=O)c2ccccc2F)cc1	3.75 (≈ 1.31 µg/mL)	6.7	> 100	133 (≈ 382 µM)	3.75	3.79
COc1ccc(Nc2ncccc2N)cc1	5.6 (≈ 1.21 µg/mL)	6.2	63	18 (≈ 83.6 µM)	1.45	1.44
O=C(NCc1ccco1)N1CCN(Cc2cccs2)CC1	2.5 (≈ 0.764 µg/mL)	5.4	> 100	≥ 105	3.53	3.5288
FC(F)(F)Oc1ccc(-c2cc3ccncc3cc2OC2CCNCC2)cc1	5 (≈ 1.94 µg/mL)	5.5	16	82 (≈ 211 µM)	3.47	6.8742
CCOc1cc2ccccc2cc1C(=O)NC	10 (≈ 2.29 µg/mL)	5.3	> 100	64 (≈ 279 µM)	4.43	4.6549
O=C(NCc1ccoc1)N1CCN(Cc2ccc3c(c2)OCO3)CC1	1.25 (≈ 0.429 µg/mL)	6.3	> 100	86 (≈ 250 µM)	3.48	3.5288
Clc1nnc(N2CCCC2)c2ccccc12	4 (≈ 0.935 µg/mL)	5.8	> 100	≥ 100	4.41	4.4101
Cn1cc(CCNC(=O)Nc2ccc(N3CCCCC3)nc2)cn1	5 (≈ 1.64 µg/mL)	4.7	> 100		2.97	2.974
Nc1ccc(S(=O)(=O)Nc2ccnn2-c2ccccc2)cc1 [SULFAPHENAZOLE]	10 (≈ 3.14 µg/mL)	<4.3	> 100	≥ 167	1.08	2.8435
N#Cc1cccc(-c2ccc(NC[C@H]3CC[C@]4(CC3)CN(c3cccnn3)C(=O)O4)nc2)c1	10 (≈ 4.41 µg/mL)	5.6	40	11 (≈ 25 µM)	4.96	4.9649
Fc1cccc(Oc2cc(C3CCCNC3)nc(-c3ccncc3)n2)c1 (stereo not drawn)	10 (≈ 3.5 µg/mL)		50	64 (≈ 183 µM)	2.9	5.1281
COc1ccc(CCNC(=O)C2(n3cnnn3)CCCCC2)cc1	8 (≈ 2.64 µg/mL)	5.7	> 100	≥ 226	2.43	3.1698
CCCCc1ccc(C(=O)Nc2nnc(S(=O)(=O)CCCC)s2)nc1	10 (≈ 3.83 µg/mL)	5.6	20	1.5 (≈ 3.92 µM)	6.01	7.3965
CNc1snc(C)c1C(=O)NCCOc1ccc(OC)cc1	2.5 (≈ 0.804 µg/mL)	5.7	> 100	121 (≈ 376 µM)	4.24	4.2469
COc1ccc(Nc2nc(N[C@@H]3CCNC3)nc3cc[nH]c(=O)c23)cc1NC(=O)c1ccccc1	5 (≈ 2.36 µg/mL)	5.5	25	106 (≈ 226 µM)	2.41	3.1698
O=[N+]([O-])c1cnc(-c2nc3ccccc3[nH]2)s1	4.4 (≈ 1.08 µg/mL)	<4.3	10	16 (≈ 65 µM)	3.17	4.459
O=C(Nc1nc2c(s1)CCCc1cccnc1-2)c1ccccc1C(F)(F)F	3.7 (≈ 1.44 µg/mL)	6.2	79	9 (≈ 23.1 µM)	5.26	5.2587
O=C(NCCO)c1c(O)c2ncc(Cc3ccc(F)cc3C(F)(F)F)cc2[nH]c1=O	7.5 (≈ 3.19 µg/mL)	5.7	> 100	10 (≈ 23.5 µM)	3.74	3.9858

Structure (SMILES)	MIC [1] [µM]	pXC50 [2]	IC50 (HepG2) [µM]	solubility kinetic at 1 h [3] [µg/mL]	Lipophilicity [4]	Lipophilicity [5]
Cc1ccc2c(c1)c(=O)cc(C(F)(F)F)n2CCNC(=O)c1ccccn1	10 (≈ 3.75 µg/mL)	5.6	> 100	6 (≈ 16 µM)	5.84	6.1236
NC(=O)c1cc2ccc(CC(=O)c3cccs3)cc2s1	3.8 (≈ 1.15 µg/mL)	6	> 100	8 (≈ 26.5 µM)	3.62	3.7247
Cc1c(C(=O)NCCOc2ccccc2)[nH]c2c1C(=O)CCC2	10 (≈ 3.12 µg/mL)	5	100	46 (≈ 147 µM)	3.62	3.8226
O=C(NCc1ccco1)N1CCN(Cc2ccc3c(c2)CCO3)CC1	2 (≈ 0.683 µg/mL)	5.8	> 100	88 (≈ 258 µM)	3.47	3.5941
N#Cc1ncn(-c2ccc3nnc(C(F)(F)F)n3n2)n1	5 (≈ 1.4 µg/mL)	<4.3	> 100	≥ 105	3.31	3.3167
Nc1ccc(C(O)CNCCc2ccccc2)cc1O (stereo not drawn)	2.9 (≈ 0.79 µg/mL)	4.97	50	53 (≈ 195 µM)	0.97	1.7338
CCCC/C=C/c1cc2ccncc2cc1OC1CCNCC1	1.6 (≈ 0.497 µg/mL)	5.9	16	36 (≈ 116 µM)	3.61	7.3475
CC(C)N(C(=O)CNc1ccccc1Nc1ccccc1)c1ccccc1	5.6 (≈ 2.01 µg/mL)	5.7	50	8 (≈ 22.3 µM)	7.73	8.1308
O=S(=O)(NCc1ccccc1)c1ccc(-c2cc3ccncc3cc2OC2CCNCC2)s1	2.5 (≈ 1.2 µg/mL)	5.4	10	33 (≈ 68.8 µM)	3.2	4.4101
CC(C)c1noc(N2CCC([C@H](C)Oc3cnc(-c4ccc(S(C)(=O)=O)c(F)c4)cn3)CC2)n1	6 (≈ 2.94 µg/mL)	5.2	25	13 (≈ 26.6 µM)	6.69	
COc1ccc(-c2nnc3sc(Cc4csc(C)n4)nn23)cc1	2.5 (≈ 0.859 µg/mL)	5.7	> 100	95 (≈ 277 µM)	3.97	4.0511
Cc1nc(Nc2cnn(Cc3ccccc3F)c2)c2nn(C)c(C)c2n1	4 (≈ 1.41 µg/mL)	6	> 100	23 (≈ 65.5 µM)	3.41	3.4146
CNc1nc(SC)nnc1-c1cccc(Cl)c1Cl	2.5 (≈ 0.753 µg/mL)	6.1	> 100	≥ 85	4.94	4.9976
c1ccc(-c2ncc(-c3ccc(OCCCn4ccnc4)cc3)s2)cc1	5 (≈ 1.81 µg/mL)	5.3	25	3 (≈ 8.3 µM)	6.42	6.7437
COC(=O)c1ccc(Oc2ccc(-c3csc(C)n3)cc2F)nn1	5.6 (≈ 1.93 µg/mL)	<4.3	> 100	17 (≈ 49.2 µM)	4.83	4.8996
CCOCn1ccc(NS(=O)(=O)c2ccc(N)cc2)nc1=O	4.7 (≈ 1.52 µg/mL)	4.9	> 100	52 (≈ 160 µM)	0.66	0.7057
NCC(c1cccs1)S(=O)(=O)c1ccccc1 (stereo not drawn)	2 (≈ 0.535 µg/mL)		32	≥ 134	2.5	2.5334
O=C(O)CCc1nc2ccccc2oc1=O	8 (≈ 1.75 µg/mL)	<4.3	> 100	63 (≈ 287 µM)	0.04	2.3212
CCCCNCC1COc2ccc(OC)cc2C1=O (stereo not drawn)	5 (≈ 1.32 µg/mL)	5.3	12	118 (≈ 448 µM)	2.99	5.6014
CC(C)Oc1ccc(-c2nnc(-c3ccc4c(c3)CCNCC4)s2)cc1Cl	10 (≈ 4 µg/mL)	5.5	16	5 (≈ 12.5 µM)	4.92	7.5923
NS(=O)(=O)c1ccc(Nc2cnc3ccccc3n2)cc1	2 (≈ 0.601 µg/mL)	<4.3	> 100	112 (≈ 373 µM)	1.07	2.5171
